From patent publication US11246818B2, “Peptides and compositions for use in cosmetics” (LIPOTRUE, S.L., priority 2017, dated 2022) come the findings set out here.

In series [1] the test system is Primary human epidermal melanocytes. Put plainly: Brightening activity: intracellular melanin content. It counts as cell-based. The conditions noted are these: 7 days, kojic acid 10 and 50 μM. As for the experimental part:
Two concentrations of kojic acid were used as positive control.
Kojic acid was used as positive control.
Primary human epidermal melanocytes were incubated in 6-well plates for 4 days and then treated with the compounds to be analysed (Ac-SEQ ID NO: 1-NH2, Ac-SEQ ID NO: 2-NH2, Ac-SEQ ID NO: 3-NH2 or Ferulic acid-SEQ ID NO: 2-NH2) for 7 days. After treatment, cells were homogenized an intracellular melanin content was quantified by absorbance at 450 nm by Multiskan FC (Thermo Fisher Scientific, MA, USA).

Series [2] relates to HO-1. Put plainly: HO-1 immunostaining on human skin explants. As for the experimental part: (§1) The protection efficacy of peptide Ac-SEQ ID NO: 1-NH2 against pollution aggression on human living explants was assessed by observation of the general morphology, immunostaining of AhR and HO-1 (both are known markers of oxidative stress as they have been related to anti-oxidative response) (Esser C., Bargen I., Weighardt H., Haarmann-Stemmann T., Krutmann J., Functions of the aryl hydrocarbon receptor in the skin, Semin Immunopathol (2013) 35:677-691; Kohen R., Nyska A., Oxidation of Biological Systems: Oxidative Stress Phenomena, Antioxidants, Redox Reactions, and Methods for Their Quantification, Toxicologic Pathology (2002) vol 30, no 6, 620-650).
(§2) Briefly, human skin explants from a person were put in culture under controlled conditions. 21 skin explants of an average diameter of 11 mm (±1 mm) were prepared and kept in survival in BEM culture medium at 37° C. in a humid, 5% CO2 atmosphere. The explants were distributed in 5 batches: explant control (Time=0), control batch, explants treated with the above-mentioned peptide, explants treated with pollutant and explants treated with pollutant and with the above-mentioned peptide. A composition containing Ac-SEQ ID NO: 1-NH2 in accordance with Example 8 was prepared and it was topically applied on days 0, 1, 3 and 4. […] Finally, image analyses and quantification were performed using Cell^D software (Olympus, Tokyo, Japan).

Series [3] deals with AhR. Put plainly: AhR immunostaining on human skin explants exposed to pollutants. To be noted: composition of Example 8 applied topically, versus pollutants without peptide. How it is done: as §1, §2
The subject of series [4] is Primary human epidermal keratinocytes. As to the kind of experiment: Protection against lipoxidation induced by synthetic smoke (intracellular MDA). It counts as cell-based. To be noted: synthetic smoke 48 h. As for the experimental part:
Primary human epidermal keratinocytes were seeded in 96-well plates in standard culture medium and, 24 hours later, subjected to a simultaneous treatment with synthetic smoke containing selected compounds from the particle phase (for example, cadmium and nicotine) and vapour phase (for example, formaldehyde (hereinafter, FA) and ethyl carbamate) of tobacco smoke and the analysed compound (Ac-SEQ ID NO: 1-NH2) for 48 h.
In addition, after treatment, lipoxidation was analysed by means of the levels of intracellular MDA, which were measured by the reaction between MDA and N-methyl-2-phenylindole (hereinafter, NMPI) rendering a stable blue chromophore with an absorption peak at 586 nm.

The test system is the same in series [5]. Put plainly: Protection against glycation induced by heavy metals (Advanced Glycation End products, competitive ELISA). The class given is cell-based. The conditions noted are these: all concentrations tested (0.01, 0.05, 0.1 mg/ml), 48 hours. How it is done: Primary human epidermal keratinocytes were seeded in 96-well plates in standard culture medium and, 24 hours later, subjected to a simultaneous treatment with heavy metals (containing a mixture of Fe, Pb and Cr) and peptide Ac-SEQ ID NO: 1-NH2 for 48 hours. Levels of Advance Glycation End (AGE) products were measured by means of a competitive ELISA assay with absorbance at 450 nm.
A general note: An ELISA detects its analyte on a solid surface through an enzyme-linked reagent.

For series [6], the system named is HEKa cells. Put plainly: Modulation of the expression of antioxidant genes (RTqPCR). The conditions noted are these: 0.05 mg/mL, 24 hours. It counts as cell-based, human. From the text:
Changes in gene expression levels are represented as a positive or negative fold-change with regard to the basal control (untreated cells). Bars from top to bottom in the y-axis refer to: CYP2R1 (Vitamin D 25-hydroxylase), NFE2L2 (Nuclear factor-like 2), HMOX1 (Heme oxygenase-1), GSTP1 (Glutathione S-transferase P), GSS (Glutathione synthetase), GPX1 (Glutathione peroxidase) and TRX (Thioredoxin). The x-axis refers to fold change versus or with regard to the basal control.
Briefly, HEKa cells were seeded in duplicate in 6-well plates at a density of 4×10^5 cells/well and maintained at standard culture conditions (37° C., 95% humidity, 5% CO2) for 24 hours. Then, cells were treated with non-cytotoxic concentrations of Ac-SEQ ID NO: 1-NH2 (0.05 mg/mL) for an additional 24 hours.
Untreated cells were used as basal control. Cells were then lysed for RNA extraction with a RNA purification commercial kit following manufacturer instructions (RNeasy mini kit; Qiagen; Netherlands). RNA was then quantified by nanodrop, adjusted in concentration and processed for retrotranscription to cDNA using a commercially available kit (High-Capacity cDNA Reverse Transcription kit; Thermofisher Scientific, USA). Resulting cDNA was used to perform a RTqPCR (Real Time Quantitative Polymerase Chain Reaction) using Taqman technology and a panel of probes designed to target specific genes related to melanogenesis and HEMn-HEKa and HEMn-HDFa communication.
A general note: Quantitative PCR measures a nucleic acid by following its amplification.

Residues, ends and D or L forms follow the SMILES beside them.

With `CC(=O)N[C@@H](CC(=O)O)C(=O)N[C@@H](Cc1ccc(O)cc1)C(=O)N[C@@H](CCCCN)C(=O)N[C@H](C(N)=O)C(C)C` [Ac-SEQ ID NO: 1-NH2, Ac-Asp-Tyr-Lys-Val-NH2] (Ac-DYKV-NH2), the “brightening or whitening activity compared with kojic acid” value in series [1] (all the concentrations tested (0.01, 0.05, 0.1 mg/ml)) is “significantly higher brightening or whitening activity”. Further, in series [1] (all the concentrations tested), the “increased brightening activity relative to the activity of the two concentrations of kojic acid” value was “two to more than four times”. Further, the “decrease in HO-1 (epidermal surface occupied)” value in series [2] (composition of Example 8 applied topically, exposed to pollutants, versus pollutants without peptide) is 23%. The “increase of levels of HO-1” value in series [2] (peptide in a final formulation, without exposure to pollutants, versus untreated and unexposed explants) is recorded as 69%. Besides, in series [3], the “decrease in AhR (epidermal surface occupied)” value worked out at 16%. In addition, the “lipoxidation (MDA)” value in series [4] (lower tested concentration (0.01 mg/ml)) was “slight decrease (non-statistically significant)”. The “lipoxidation (MDA)” value in series [4] (other two tested concentrations (0.05, 0.1 mg/ml)) is reported as “higher, statistically significant, effect”. For the same molecule, the “quantity of advanced glycation end-products” value in series [5] was “statistically significant decrease”. In series [6], the “CYP2R1 gene expression, fold change versus basal control” value stood at 1.44 fold change; the “GPX1 gene expression, fold change versus basal control” value is on record as 1.22 fold change; the “GSS gene expression, fold change versus basal control” value was 1.10 fold change; the “GSTP1 gene expression, fold change versus basal control” value came to 1.13 fold change. Also, in series [6], the “HMOX1 gene expression, fold change versus basal control” value is 1.48 fold change; the “NFE2L2 gene expression, fold change versus basal control” value is given as 1.23 fold change; the “TRX gene expression, fold change versus basal control” value came to 1.34 fold change.
